pIC50: −log10 of the molar value. Where two headings read alike, the source gives them in different places.
Key:
OATP1B1 = biological target: T1, OATP1B1 (Homo sapiens, UniProt Q9Y6L6); assay: OATP1B1-mediated pyranine uptake in overexpressing A431 cells; type: cell-based
T1 construct: expressed in transfected cells; host or cells: A431
T1 sequence (Q9Y6L6 1-691): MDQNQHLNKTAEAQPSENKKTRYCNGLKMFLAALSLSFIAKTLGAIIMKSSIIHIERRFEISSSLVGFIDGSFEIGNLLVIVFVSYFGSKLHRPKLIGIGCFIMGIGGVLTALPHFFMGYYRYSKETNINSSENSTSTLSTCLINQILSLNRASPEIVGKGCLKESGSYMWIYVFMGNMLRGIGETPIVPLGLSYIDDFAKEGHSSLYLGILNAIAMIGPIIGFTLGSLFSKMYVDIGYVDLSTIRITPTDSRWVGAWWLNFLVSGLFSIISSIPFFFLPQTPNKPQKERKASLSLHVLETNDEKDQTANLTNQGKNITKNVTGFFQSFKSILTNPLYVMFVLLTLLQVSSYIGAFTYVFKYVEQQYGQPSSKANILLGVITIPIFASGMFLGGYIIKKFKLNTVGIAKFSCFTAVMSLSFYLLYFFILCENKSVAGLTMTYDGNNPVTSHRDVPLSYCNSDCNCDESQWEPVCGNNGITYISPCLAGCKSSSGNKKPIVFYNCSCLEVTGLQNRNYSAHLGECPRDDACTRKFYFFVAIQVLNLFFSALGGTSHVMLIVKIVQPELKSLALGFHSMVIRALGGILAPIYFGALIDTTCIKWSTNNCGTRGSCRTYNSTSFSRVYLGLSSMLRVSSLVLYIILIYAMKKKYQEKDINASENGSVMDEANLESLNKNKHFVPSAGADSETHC
Procedure: The human epidermoid carcinoma cell (A431) overexpressing OATP1A2, OATP1B1, OATP1B3, or OATP2B1 transporters and their mock control cells were generated previously as described. , Cell culture was maintained in DMEM supplemented with 10% fetal bovine serum, 2 mM L-glutamine, 100 units/mL penicillin, and 100 μg/mL streptomycin at 37 °C and 5% CO2.
The inhibitory effects of mycotoxins (Z14S and Z14GA) were examined using indirect fluorescence assays, where pyranine and SR101 were used as fluorescent substrates. , A431 cells overexpressing OATP1A2, OATP1B1/3, or OATP2B1 and their mock-transfected controls were seeded at a density of 8 × 10^4 cells/well onto 96-well plates and incubated for 18–22 h prior to transport measurements. The next day, plated cells were washed three times with 200 μL of PBS (phosphate-buffered saline, pH 7.4) and preincubated with 50 μL of transport buffer (pH 5.5; 125 mM NaCl, 4.8 mM KCl, 1.2 mM CaCl2, 1.2 mM KH2PO4, 12 mM MgSO4, 25 mM MES, and 5.6 mM glucose) with or without increasing concentrations of the mycotoxins tested (0.001–20 μM) for 5 min at 37 °C. The transport inhibition measurements were initiated by adding 50 μL of transport buffer containing the proper fluorescent substrate SR101 (0.5 μM, OATP1A2) or pyranine (10 μM for OATP1B1 or 20 μM for OATP1B3 and OATP2B1). After 10 min (OATP1A2), 15 min (OATP1B1 and OATP2B1), or 30 min (OATP1B3) incubation, the transport was terminated by washing the cells three times with ice-cold PBS. Regarding the individual OATP assays, we applied different incubation times to keep the substrate uptake in the linear range, , avoiding substrate depletion or saturation effects, as it is indispensable for the accurate assessment. Using an Enspire plate reader (PerkinElmer, Waltham, MA), the fluorescence was measured at excitation/emission wavelengths of 460/510 nm (pyranine) or 586/605 nm (SR101).
OATP-mediated transport was obtained by subtracting the activity of the mock control cells from the activity of the OATP-expressing cells. The transport activity (%) of the OATPs was calculated by comparing the fluorescence signal obtained in the absence of the compounds tested (set to 100%).

CYP2C9 = biological target: T2, CYP2C9 (Homo sapiens, UniProt P11712); assay: in vitro; type: biochemical; conditions: diclofenac 5 μM, 120 min
T2 construct: purchased Merck
Procedure: Inhibitory actions of ZEN conjugates on CYP2C9 and CYP3A4 enzymes were examined employing CypExpress Cytochrome P450 human kits. , Briefly, incubates (200 μL) contained the substrate (5 μM; diclofenac for CYP2C9 and testosterone for CYP3A4), the CypExpress reagent (6 mg/mL of CYP2C9 kit or 15 mg/mL of CYP3A4 kit; also including the glucose-6-phosphate dehydrogenase enzyme), and the test compounds (each 20 μM) in 0.05 M potassium phosphate buffer (pH 7.5). CYP3A4 assay was supplemented with additional G6P and NADP^+ (both 400 μM). Enzyme assays were started with the addition of the enzyme. After 120 min (CYP2C9) or 180 min (CYP3A4) incubation at 700 rpm and 30 °C in a thermomixer, the reaction was stopped with 100 μL of ice-cold methanol. Then, the samples were centrifuged for 10 min at 14,000g and room temperature. The supernatants were gently removed and directly analyzed by HPLC (see Section ).
Diclofenac and 4′-hydroxydiclofenac (CYP2C9 assay) were quantified using the previously reported HPLC-UV assay, , without modification. Briefly, the isocratic elution, with 1.0 mL/min flow rate, was performed with orthophosphoric acid (6 mM) and acetonitrile (48:52 v/v %) mobile phase, applying a Security Guard (C8, 4.0 × 3.0 mm; Phenomenex, Torrance, CA) precolumn and a Mediterranea Sea8 (C8, 150 × 4.6 mm, 5 μm; Teknokroma, Barcelona, Spain) analytical column at room temperature (injected volume: 20 μL). Diclofenac and 4′-hydroxydiclofenac were detected at 275 nm.

CYP3A4 = biological target: T3, CYP3A4 (Homo sapiens, UniProt P08684); assay: in vitro; type: biochemical; conditions: testosterone 5 μM
T3 construct: purchased Merck
Excerpt: Testosterone and 6β-hydroxytestosterone were detected at 240 nm.

T3 sequence (P08684 whole entry): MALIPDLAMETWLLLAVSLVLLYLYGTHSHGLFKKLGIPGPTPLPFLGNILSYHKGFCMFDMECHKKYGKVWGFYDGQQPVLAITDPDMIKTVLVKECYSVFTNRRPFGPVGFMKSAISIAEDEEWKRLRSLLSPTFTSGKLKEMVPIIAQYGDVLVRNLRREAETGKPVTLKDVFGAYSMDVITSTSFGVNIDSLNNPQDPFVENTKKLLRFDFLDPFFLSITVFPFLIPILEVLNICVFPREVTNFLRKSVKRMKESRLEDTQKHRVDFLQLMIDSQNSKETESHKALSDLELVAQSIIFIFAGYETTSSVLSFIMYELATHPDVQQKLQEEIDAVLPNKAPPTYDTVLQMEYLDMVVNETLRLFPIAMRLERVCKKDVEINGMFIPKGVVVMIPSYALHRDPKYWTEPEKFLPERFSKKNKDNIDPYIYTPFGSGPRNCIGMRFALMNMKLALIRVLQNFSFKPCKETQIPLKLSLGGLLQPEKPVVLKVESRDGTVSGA
T2 sequence (P11712 whole entry): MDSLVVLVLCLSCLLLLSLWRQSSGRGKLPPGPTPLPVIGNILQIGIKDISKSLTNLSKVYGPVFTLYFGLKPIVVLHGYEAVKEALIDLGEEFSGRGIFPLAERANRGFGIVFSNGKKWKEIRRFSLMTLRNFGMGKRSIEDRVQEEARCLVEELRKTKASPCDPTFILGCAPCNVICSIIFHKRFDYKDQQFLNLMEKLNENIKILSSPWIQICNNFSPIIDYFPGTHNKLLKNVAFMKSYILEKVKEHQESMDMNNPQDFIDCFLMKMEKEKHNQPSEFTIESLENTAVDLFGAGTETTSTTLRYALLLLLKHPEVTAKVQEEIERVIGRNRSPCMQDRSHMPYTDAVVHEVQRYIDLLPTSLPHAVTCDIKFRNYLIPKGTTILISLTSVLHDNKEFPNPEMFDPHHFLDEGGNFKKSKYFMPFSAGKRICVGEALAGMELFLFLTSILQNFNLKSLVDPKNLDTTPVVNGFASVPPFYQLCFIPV

With `C[C@H]1CCCC(=O)CCC/C=C/c2cc(O[C@@H]3O[C@H](C(=O)O)[C@@H](O)[C@H](O)[C@H]3O)cc(O)c2C(=O)O1` [Z14GA, Zearalenone-14-glucuronide] the pIC50 (OATP1B1; pyranine 10 μM, 15 min, A431 cells, read-out: IC50 for OATP1B1) was under 4.70, the “inhibition of CYP2C9 (decrease in metabolite formation)” value (CYP2C9; each 20 μM) was “no effects” and the “inhibition of CYP3A4 (decrease in metabolite formation)” value (CYP3A4; each 20 μM, 180 min) was “no effects”.

With `C[C@H]1CCCC(=O)CCC/C=C/c2cc(OS(=O)(=O)O)cc(O)c2C(=O)O1` [Z14S, zearalenone-14-sulfate] the pIC50 (OATP1B1) was 6.57, the “decrease in OATP1B1 transport activity” value (OATP1B1; 20 μM, pyranine substrate, A431 cells) was 80–100% and the “stronger inhibition on OATP1B1 compared to ZEN” value (OATP1B1; ratio of IC50 values vs ZEN) was “more than 30 fold”. The inhibition at 120 min, 20 μM (CYP2C9; human, pH 7.5, each 20 μM, read-out: inhibition of CYP2C9 (decrease in metabolite formation)) was about 45% and the inhibition at 180 min, 20 μM (CYP3A4; human, pH 7.5, each 20 μM, read-out: inhibition of CYP3A4 (decrease in metabolite formation)) was about 45%.

— publication PMC12311865, “In Vitro Evaluation of the Potential Interactions of Zearalenone-14-sulfate and Zearalenone-14-glucuronide with Human Cytochrome P450 Enzymes, Organic Anion Transporting Polypeptides, and ATP-Binding Cassette Multidrug Transporters” (ACS Omega, 2025)
